Data from BindingDB's records for doi:10.1021/jm991079p (University of Heidelberg, 2000).

What was measured:
[1] = molecular target: Sigma-2 receptor (TMEM97) (Rattus norvegicus); experiment: Binding affinity was measured on Sigma receptor type 2 with rat liver membranes and [3H]- DTG as ligand.
[2] = molecular target: Sigma non-opioid intracellular receptor 1 (Cavia porcellus) (UniProt Q60492); experiment: Binding affinity was measured on Sigma receptor type 1 with guinea pig membranes and [3H]- pentazocine as ligand.
Chain of Sigma non-opioid intracellular receptor 1 (Cavia porcellus) (Q60492 whole entry, looked up): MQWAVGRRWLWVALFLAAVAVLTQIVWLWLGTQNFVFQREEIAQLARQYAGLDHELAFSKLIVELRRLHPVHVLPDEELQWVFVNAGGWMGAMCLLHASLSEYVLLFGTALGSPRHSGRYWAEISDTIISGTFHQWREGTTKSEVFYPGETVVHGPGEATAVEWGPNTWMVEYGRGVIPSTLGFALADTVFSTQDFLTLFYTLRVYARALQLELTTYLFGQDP

| Structure (SMILES) | Ki [1] | Ki [2] |
| --- | --- | --- |
| CCN(CC)CCNC(=O)c1ccc(OC)c(I)c1 [N-(2-Diethylamino-ethyl)-3-iodo-4-methoxy-benzamide (IMBA)] | 6.52 µM | 0.249 µM |
| CCN(CC)CCNC(=O)c1cc(I)c(NC(C)=O)cc1OC [4-acetamido-N-(2-(diethylamino)ethyl)-5-iodo-2-methoxybenzamide] | 115 µM | 5.19 µM |
| CCN(CC)CCNC(=O)c1cc(I)c(N)cc1OC | 21.4 µM | 0.484 µM |

Compounds with a lower Ki [1], results first:

| Ki [1] | Ki [2] | Structure (SMILES) |
| --- | --- | --- |
| 1.02 µM | 0.092 µM | CCN(CC)CCNC(=O)c1cc(I)ccc1OC [N-(2-Diethylamino-ethyl)-5-iodo-2-methoxy-benzamide] |
| 2.35 µM | 0.278 µM | CCN(CC)CCNC(=O)c1cc(Br)c(N)c(I)c1OC [4-Amino-5-bromo-N-(2-diethylamino-ethyl)-3-iodo-2-methoxy-benzamide] |
